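96-well plates; 48 h exposure; 5 concentrations. Endpoints by linear interpolation between flanking doses. Not reached: highest tested concentration assigned. GI50 marks 50% less growth.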 Activity calls are given as the source filed them. Rule as the data show it: active = GI50 up to about 1.1 µM and inactive = higher. Residues, ends and D or L forms follow the SMILES beside them. Bounds are passed on as bounds.

Test systems include Hs-578T; T47D; DMS-114; KM-20L2; M19-MEL; SNB-78; XF498.
Common to all, as to experiment: growth of human tumour cells (NCI), 48 h

As for `FC(F)(F)c1cccc(-c2nc3nc(Cl)c(Cl)nc3[nH]2)c1`, the GI50 in the test with Hs-578T is 2.57 µM (inactive); in the test on T47D it was 1.29 µM (inactive).
With `C(=N/Nc1ccccn1)/c1cccnc1`, the GI50 in the test with Hs-578T and in the test on T47D was > 100 µM (inactive) throughout.
For `CCCCc1ccc(Nc2nc(Cl)c3c(ncn3COCCOC(C)=O)n2)cc1`, the GI50 in the test with Hs-578T was 21.5 µM (inactive); with T47D it was 17.8 µM (inactive).
Take `N#C[C@H](C(=O)c1ccccc1F)c1nc2ccccc2[nH]1`: the GI50 in the test with Hs-578T is 85.5 µM (inactive); with T47D it was > 100 µM (inactive).
For `Cc1nc(O)nc2nc3cc(Cl)cc(Cl)c3c(NC(C)(CO)CO)c12` the same measures were 31.6 µM (inactive) and > 100 µM (inactive).
As to `CS(=O)(=O)OCCN1CCN(C(=O)c2cccc3c(Nc4ccc(S(=O)(=O)N=C(N)N)cc4)c4ccccc4nc23)CC1`, the GI50 in the test on DMS-114, in the test on KM-20L2, in the test with M19-MEL, in the test on SNB-78 and in the test with XF498 was > 100 µM (inactive) in each case.
Regarding `CCOC(=O)C(Oc1ccc(OC)c2c1C(=O)CCC2)c1ccccc1` (stereo unspecified), the GI50 in the test on DMS-114 is 84.7 µM (inactive); in the test with KM-20L2, > 100 µM (inactive); in the test with M19-MEL, > 100 µM (inactive); in the test on SNB-78, 74 µM (inactive); in the test on XF498, > 100 µM (inactive).
Turning to `c1ccc2c(c1)CCc1c-2n(CCN2CCCCC2)c2ccccc12`, the values for the GI50 in the test with Hs-578T and in the test with T47D were 18.2 µM (inactive) and 15.5 µM (inactive), respectively.
As to `N#CCC(=O)NC1C2CC3CC(C2)CC1C3` (stereo unspecified), the GI50 in the test on DMS-114 was 16 µM (inactive); in the test on KM-20L2 it was 18.2 µM (inactive); in the test on M19-MEL, 24.5 µM (inactive); in the test on SNB-78, 20.5 µM (inactive).
With `COc1cc(C=O)cc(/C=N/N=C/c2ccccc2O)c1O`, the GI50 is 2.92 µM (inactive) with Hs-578T and 4.71 µM (inactive) in the test on T47D.
For `CC(=O)N1c2ccccc2C23CCN4CC5=CCOC(O)C(C5CC42)C13` (stereo unspecified) the same measures were > 100 µM (inactive) and > 100 µM (inactive).
For `O=C(Cn1c(-c2ccccc2)cc2ccccc21)N1CCCC1` the same measures were > 100 µM (inactive) and > 100 µM (inactive).
`O=C(NC12CC3CC(CC(C3)C1)C2)C(=O)c1c[nH]c2ccc(Cl)cc12`: the GI50 in the test on DMS-114 is 66.8 µM (inactive); in the test on KM-20L2 it was 5.73 µM (inactive); in the test on M19-MEL, 79.1 µM (inactive); in the test on SNB-78, 83.2 µM (inactive); in the test with XF498, 14.7 µM (inactive).
In the case of `C/C(CC(=O)Nc1cccc([N+](=O)[O-])c1)=N/NC(N)=S`, the GI50 in the test on DMS-114, in the test on KM-20L2 and in the test with M19-MEL was > 100 µM (inactive) in each case.
As to `Cc1c(C(=O)C(=O)c2ccccc2)c(C)c(C(=O)C(=O)c2ccccc2)c(C)c1C(=O)C(=O)c1ccccc1`, the GI50 in the test with Hs-578T and in the test with T47D was > 100 µM (inactive) each time.
Consider `CCOC(=O)C(C(=S)SC)c1nn2c(=O)cc(C)nc2s1` (stereo unspecified), for which the GI50 in the test on Hs-578T was 22.1 µM (inactive); with T47D it was 19 µM (inactive).
For `CCc1ccccc1N1CCN(C(=O)c2cc(OC)c(OC)c(OC)c2)CC1`, the GI50 is 0.0561 µM (active) with DMS-114; 0.0144 µM (active) in the test with Hs-578T; 0.0813 µM (active) in the test with KM-20L2; 0.0647 µM (active) in the test with M19-MEL; 0.262 µM (active) in the test on SNB-78; 17.3 µM (inactive) with T47D. Further, the GI50 with XF498 was 0.115 µM (active).
Take `O=C1/C(=C/c2ccc(Br)s2)NC(=S)N1c1ccccc1`: the GI50 in the test with Hs-578T is 38.6 µM (inactive).
In the case of `COc1ccc(C(OCC2OC3(COC(c4ccccc4)(c4ccc(OC)cc4)c4ccc(OC)cc4)C(Oc4nc(=O)ccn43)C2O)(c2ccccc2)c2ccc(OC)cc2)cc1` (stereo unspecified), the GI50 in the test on Hs-578T is 10.8 µM (inactive); with T47D, > 100 µM (inactive).
For `COC(=O)c1c(C)cc(OC)c(C/C=C(\C)CCCc2coc(C=C(C)C)c2)c1OC` the same measures were 18.2 µM (inactive) and 43 µM (inactive).
As to `O=[N+]([O-])c1ccc(C2=NOC(c3ccc(Cl)cc3)N2C23CC4CC(CC(C4)C2)C3)cc1` (stereo unspecified), the GI50 in the test with Hs-578T was 34.9 µM (inactive); in the test with T47D, 35.2 µM (inactive).
In the case of `c1ccc(C2CC(NC3CCCCC3)=Nc3ccccc3N2)cc1` (stereo unspecified), in the test on Hs-578T, the GI50 is 28.4 µM (inactive).
In the case of `COc1cc2c3cc1Oc1c(OC)c(OC)cc4c1C(Cc1ccc(O)c(c1)Oc1ccc(cc1)CC3N(C)CC2)CN(C)C4` (stereo unspecified), the GI50 is 15.5 µM (inactive) with Hs-578T and 22.1 µM (inactive) in the test with T47D.
`Cc1ccc(S(=O)(=O)N/N=C(\c2nc3ccc([N+](=O)[O-])cc3[nH]c2=O)C(O)c2ccc([N+](=O)[O-])cc2)cc1` (stereo unspecified): the GI50 is 32 µM (inactive) with DMS-114; 46.2 µM (inactive) in the test with KM-20L2; > 100 µM (inactive) in the test on M19-MEL; > 100 µM (inactive) in the test with SNB-78; > 100 µM (inactive) with XF498.
For the compound `COC(=O)c1cc(C)ccc1C1CN=NC12Cc1c(C)cc(C)cc1C2=O` (stereo unspecified), the GI50 in the test on Hs-578T is 18.7 µM (inactive); with T47D it was 31 µM (inactive).
The like results for `COc1ccc2nc3cc([N+](=O)[O-])ccc3c(Nc3ccc(S(=O)(=O)N=C(N)N)cc3)c2c1` were, in that order, 30.9 µM (inactive) and 9.91 µM (inactive).
As to `CC(=O)OCC1OC(n2c(-c3ccccc3)c(C(C)=O)c(-c3ccc(Cl)cc3)c(C#N)c2=S)C(OC(C)=O)C(OC(C)=O)C1OC(C)=O` (stereo unspecified), the GI50 in the test with T47D was > 100 µM (inactive).
Consider `Cc1noc(NS(=O)(=O)c2ccc(NC(=O)c3ccc4nc5ccccc5c(Nc5ccc(S(=O)(=O)Nc6onc(C)c6C)cc5)c4c3)cc2)c1C`, for which the GI50 in the test on Hs-578T is > 100 µM (inactive); in the test on T47D, 40.2 µM (inactive).
The like results for `CCOC1OC(COC(=O)C(C)(C)C)C(O)CC1n1cc(C)c(=O)[nH]c1=O` (stereo unspecified) were, in that order, > 100 µM (inactive) and > 100 µM (inactive).
For `CCOC(=O)c1ccc(NC(=O)O/N=C(/Cl)CCl)cc1` the same measures were > 100 µM (inactive) and 34.1 µM (inactive).
For `CS[C@]12[C@@H]3C(=O)N(C)C(=O)[C@@H]3[C@](C)(C(=O)N1C)C(=O)N2c1ccccc1` the same measures were > 100 µM (inactive) and > 100 µM (inactive).
`CCOC(CCNCC(OCC)OCC)OCC`: the GI50 in the test with Hs-578T and in the test with T47D was > 10 µM (inactive) in each case.
For `O=C1C[C@@]23CCC4(CC2=CCC[C@H]3O1)OCCO4`, the GI50 with Hs-578T and in the test on T47D was > 100 µM (inactive) in each case.
`N#C/C(=C/NC(=S)Nc1ccc(S(N)(=O)=O)cc1)C(N)=O`: the GI50 in the test on Hs-578T is > 100 µM (inactive).
As to `CC(=O)NNc1nc(C)c(C(/C=C/c2ccc(/C=C/C(=N\NC(=O)c3ccncc3)c3sc(NNC(C)=O)nc3C)cc2)=N/NC(=O)c2ccncc2)s1`, the GI50 in the test with DMS-114, in the test with KM-20L2, in the test on M19-MEL and in the test on SNB-78 was > 100 µM (inactive) throughout.
For `CN(C)CCCNc1nnc(NCCCN(C)C)c2c(=O)c3sccc3[nH]c12`, the GI50 in the test on Hs-578T is 23.2 µM (inactive); with T47D, 19.4 µM (inactive).
As to `Cc1nc2ccc(S(=O)(=O)Nc3ccccc3Cl)cc2c(=O)n1NC(=O)CNc1ccccc1Cl`, in the test with Hs-578T, the GI50 was > 100 µM (inactive).
In the case of `CCOC(=O)C#Cc1ccccc1`, the GI50 in the test on Hs-578T is 19.3 µM (inactive); with T47D, 19.4 µM (inactive).
The like results for `Cc1ccc(S(=O)(=O)[N-]C2C(=O)c3ccccc3C(=O)C2[n+]2cccc(C(N)=O)c2)cc1` (stereo unspecified) were, in that order, > 100 µM (inactive) and 24 µM (inactive).
For `O=C1CNNC(CSc2nc3ccc(I)cc3c(=O)n2Cc2ccccc2)=N1` the same measures were 32.9 µM (inactive) and 15.5 µM (inactive).
Regarding `S=C1N=C2C(=N1)n1c3c(c4ccccc41)CCCC23` (stereo unspecified), the GI50 was 44.1 µM (inactive) in the test with Hs-578T and 26 µM (inactive) in the test on T47D.
For `Cc1nc2c(=O)n3c4c(cccc4c2o1)CCC3` the same measures were > 100 µM (inactive) and > 100 µM (inactive).
The like results for `COc1ccc(/C=C2\N=C3NC(=O)C(N4CCCCC4)=C(N)N3C2=O)cc1` were, in that order, 47.5 µM (inactive) and > 100 µM (inactive).
Turning to `CCN(CC)CCNC(=O)c1cc2cc(NC(=O)c3cc4cc([N+](=O)[O-])ccc4[nH]3)ccc2[nH]1`, in the test on T47D, the GI50 was 18.4 µM (inactive).
For the compound `O=c1oc2cc(O)ccc2c(O)c1C(c1ccccc1F)c1c(O)c2ccc(O)cc2oc1=O`, the values for the GI50 in the test with Hs-578T and in the test with T47D were 68.9 µM (inactive) and > 100 µM (inactive), respectively.
For `CC1CN=C(N(C(=O)Nc2ccccc2)c2ccccc2)S1` (stereo unspecified) the same measures were 42.5 µM (inactive) and 24.9 µM (inactive).
Regarding `COc1cc(OC)c(OC)cc1/C=C/c1nc2ccccc2s1`, the GI50 in the test with Hs-578T is 67 µM (inactive); with T47D, 8.45 µM (inactive).
The like results for `Cc1nn(-c2ccccc2)c2nc3ccc(Cl)cc3c(-c3ccccc3)c12` were, in that order, > 100 µM (inactive) and > 100 µM (inactive).
In the case of `C=C(C)C1CC=C(C)C(O)([C@@]2(O)C[C@H](C(=C)C)CC=C2C)C1` (stereo partly specified), the GI50 is 37.3 µM (inactive) with DMS-114, 11.5 µM (inactive) with M19-MEL, 30.6 µM (inactive) with SNB-78 and 14 µM (inactive) in the test on XF498.
Turning to `Nc1c2c(nc3ccccc13)-c1ccccc1CCC2`, the GI50 was 20.2 µM (inactive) in the test on Hs-578T and 13.2 µM (inactive) with T47D.
As for `C=C(C)[C@@H]1CC[C@]2(C(=O)O)CC[C@]3(C)[C@H](CCC4[C@@]5(C)CC[C@H](C(=O)/C=C/c6ccc(O)c(O)c6)C(C)(C)[C@@H]5CC[C@]43C)[C@@H]12` (stereo partly specified), the GI50 was 5.47 µM (inactive) in the test with Hs-578T and 5.14 µM (inactive) in the test with T47D.
Take `CC(CC(C)[C@H]1CCC2[C@H]3C(CC(=O)[C@@]21C)[C@@]1(C)CCC(O)C[C@H]1C[C@@H]3O)C(=O)O` (stereo partly specified): the GI50 with T47D was > 100 µM (inactive).
On to `C=C1C(=O)OC2CC3(C)CCCC(C)C3=CC12` (stereo unspecified), for which the GI50 in the test on Hs-578T was 2.91 µM (inactive); with T47D, 2.88 µM (inactive).
As for `CCC(C)C(NC(=O)C1CCCN1)C(=O)NC(C(=O)NCC(=O)NC(CC(N)=O)C(=O)NC(CC(C)C)C(=O)NC(CC(C)C)C(=O)NC(CCCCN)C(N)=O)C(C)C` (stereo unspecified) (H-PIVGNLLK-NH2; configuration not given here), the GI50 in the test with Hs-578T and in the test on T47D was > 75 µM (inactive) in each case.
With `OC(CCN1CCCCC1)(c1ccccc1)c1ccccc1` [PRIDINOL], the GI50 with T47D was > 100 µM (inactive).

The values are drawn from ChEMBL document CHEMBL1201862, “PubChem BioAssay data set” (2004).
